± gives the expanded uncertainty stated by the source.
Conditions: Fluid (supercritical or subcritical phases), Vibrating wire viscometry

N#N [nitrogen]
Conditions | viscosity [mPa·s]
298.15 K, 100 kPa | 0.01778 ± 8.5e-05
298.15 K, 150 kPa | 0.01779 ± 8.3e-05
298.15 K, 200 kPa | 0.01781 ± 7.8e-05
298.15 K, 250 kPa | 0.01782 ± 7.7e-05
298.15 K, 300.1 kPa | 0.01782 ± 7.8e-05
298.15 K, 350.1 kPa | 0.01784 ± 7.7e-05
298.15 K, 400 kPa | 0.01784 ± 7.7e-05
298.15 K, 450.1 kPa | 0.01784 ± 7.6e-05
298.15 K, 500.1 kPa | 0.01785 ± 7.6e-05
298.15 K, 600.1 kPa | 0.01786 ± 7.6e-05
298.15 K, 700.1 kPa | 0.01787 ± 7.7e-05
298.15 K, 800.1 kPa | 0.01789 ± 7.7e-05
298.15 K, 900.1 kPa | 0.0179 ± 7.8e-05
298.15 K, 1000.2 kPa | 0.01792 ± 7.8e-05
298.15 K, 1100.2 kPa | 0.01793 ± 7.8e-05
298.15 K, 1200.1 kPa | 0.01795 ± 0.00015
298.15 K, 1300.1 kPa | 0.01796 ± 7.8e-05
298.15 K, 1400.1 kPa | 0.01797 ± 0.00014
298.15 K, 1500.1 kPa | 0.01798 ± 7.8e-05
298.15 K, 1599.9 kPa | 0.018 ± 7.9e-05
298.15 K, 1700 kPa | 0.01801 ± 7.9e-05
298.15 K, 1800.1 kPa | 0.01803 ± 7.8e-05
298.15 K, 1899.9 kPa | 0.01805 ± 7.8e-05
298.15 K, 2000.4 kPa | 0.01806 ± 7.8e-05
298.15 K, 2250 kPa | 0.0181 ± 8.1e-05
298.15 K, 2500.3 kPa | 0.01815 ± 8.1e-05
298.15 K, 2750.4 kPa | 0.01818 ± 7.9e-05
298.15 K, 3000.9 kPa | 0.01822 ± 7.9e-05
298.15 K, 3250.3 kPa | 0.01825 ± 8.3e-05
298.15 K, 3500.7 kPa | 0.01831 ± 8.4e-05
298.15 K, 3750.7 kPa | 0.01835 ± 8.3e-05
298.15 K, 4001 kPa | 0.01841 ± 8.5e-05
298.15 K, 4250.5 kPa | 0.01846 ± 8.5e-05
298.15 K, 4499.8 kPa | 0.01851 ± 8.8e-05
298.15 K, 4749.9 kPa | 0.01858 ± 8.4e-05
298.15 K, 5000.5 kPa | 0.01861 ± 8.4e-05
298.15 K, 5500.9 kPa | 0.01872 ± 8.9e-05
298.15 K, 6005.4 kPa | 0.01884 ± 9.1e-05
298.15 K, 6500.4 kPa | 0.01897 ± 9.1e-05
298.15 K, 7002.5 kPa | 0.01909 ± 9.1e-05
298.15 K, 7501.6 kPa | 0.01921 ± 9.2e-05
298.15 K, 8000.9 kPa | 0.01934 ± 9.3e-05
298.15 K, 8500.9 kPa | 0.01947 ± 9.5e-05
298.15 K, 8999.3 kPa | 0.01961 ± 9.5e-05
298.15 K, 9499.4 kPa | 0.01973 ± 9.6e-05
298.15 K, 10001 kPa | 0.01988 ± 9.9e-05
298.15 K, 11005 kPa | 0.02018 ± 0.0001
298.15 K, 12002 kPa | 0.02047 ± 0.0001
298.15 K, 13004 kPa | 0.02079 ± 0.00011
298.15 K, 14004 kPa | 0.0211 ± 0.00011
298.15 K, 15006 kPa | 0.02142 ± 0.00011
298.15 K, 16001 kPa | 0.02176 ± 0.00011
298.15 K, 17010 kPa | 0.02211 ± 0.00011
298.15 K, 18008 kPa | 0.02247 ± 0.00012
298.15 K, 19006 kPa | 0.02284 ± 0.00012
298.15 K, 20005 kPa | 0.02318 ± 0.00012
298.15 K, 21000 kPa | 0.02354 ± 0.00012
298.15 K, 22001 kPa | 0.02391 ± 0.00012
298.15 K, 23008 kPa | 0.02429 ± 0.00012
298.15 K, 24003 kPa | 0.02466 ± 0.00012
298.15 K, 25014 kPa | 0.02503 ± 0.00013
298.15 K, 26005 kPa | 0.02541 ± 0.00013
298.15 K, 27010 kPa | 0.02581 ± 0.00013
298.15 K, 28009 kPa | 0.0262 ± 0.00013
298.15 K, 29013 kPa | 0.02657 ± 0.00013
298.15 K, 30010 kPa | 0.02695 ± 0.00013
298.15 K, 31009 kPa | 0.02735 ± 0.00014
298.15 K, 31995 kPa | 0.02774 ± 0.00014
298.15 K, 33004 kPa | 0.02814 ± 0.00014
298.15 K, 33949 kPa | 0.02852 ± 0.00014
298.15 K, 35027 kPa | 0.02893 ± 0.00014
323.15 K, 100 kPa | 0.0189 ± 8.9e-05
323.15 K, 200.1 kPa | 0.01893 ± 8.4e-05
323.15 K, 300.1 kPa | 0.01895 ± 8.2e-05
323.15 K, 400.1 kPa | 0.01896 ± 8e-05
323.15 K, 600.1 kPa | 0.01898 ± 7.9e-05
323.15 K, 800.3 kPa | 0.019 ± 7.9e-05
323.15 K, 1000.6 kPa | 0.01903 ± 8.1e-05
323.15 K, 1500.7 kPa | 0.0191 ± 8.1e-05
323.15 K, 2000.7 kPa | 0.01917 ± 8.2e-05
323.15 K, 2500.9 kPa | 0.01924 ± 8.3e-05
323.15 K, 3000.8 kPa | 0.01932 ± 8.4e-05
323.15 K, 3502.6 kPa | 0.0194 ± 8.4e-05
323.15 K, 4001.8 kPa | 0.01948 ± 8.5e-05
323.15 K, 4500.4 kPa | 0.01957 ± 8.6e-05
323.15 K, 5002.2 kPa | 0.01965 ± 8.7e-05
323.15 K, 5503.9 kPa | 0.01976 ± 8.7e-05
323.15 K, 6003.6 kPa | 0.01983 ± 8.7e-05
323.15 K, 6503.6 kPa | 0.01994 ± 9.2e-05
323.15 K, 7009.3 kPa | 0.02005 ± 9.2e-05
323.15 K, 7502.7 kPa | 0.02015 ± 9.2e-05
323.15 K, 8003.1 kPa | 0.02027 ± 9.3e-05
323.15 K, 8504.2 kPa | 0.02038 ± 9.4e-05
323.15 K, 9006.1 kPa | 0.0205 ± 9.5e-05
323.15 K, 9500.4 kPa | 0.02062 ± 9.5e-05
323.15 K, 10007 kPa | 0.02073 ± 9.6e-05
323.15 K, 11007 kPa | 0.02098 ± 9.9e-05
323.15 K, 12006 kPa | 0.02124 ± 0.0001
323.15 K, 13005 kPa | 0.02151 ± 0.0001
323.15 K, 14005 kPa | 0.02176 ± 0.0001
323.15 K, 15005 kPa | 0.02205 ± 0.00011
323.15 K, 16009 kPa | 0.02233 ± 0.00011
323.15 K, 17007 kPa | 0.02262 ± 0.00011
323.15 K, 18000 kPa | 0.02292 ± 0.00011
323.15 K, 19007 kPa | 0.02323 ± 0.00011
323.15 K, 19999 kPa | 0.02354 ± 0.00011
323.15 K, 21010 kPa | 0.02383 ± 0.00011
323.15 K, 22011 kPa | 0.02417 ± 0.00012
323.15 K, 23013 kPa | 0.02451 ± 0.00012
323.15 K, 24004 kPa | 0.02481 ± 0.00012
323.15 K, 25005 kPa | 0.02511 ± 0.00012
323.15 K, 26011 kPa | 0.02547 ± 0.00012
323.15 K, 27000 kPa | 0.02579 ± 0.00012
323.15 K, 28012 kPa | 0.02613 ± 0.00012
323.15 K, 29014 kPa | 0.02646 ± 0.00012
323.15 K, 30014 kPa | 0.02677 ± 0.00013
323.15 K, 31013 kPa | 0.02714 ± 0.00013
323.15 K, 31997 kPa | 0.02746 ± 0.00013
323.15 K, 33007 kPa | 0.02781 ± 0.00013
323.15 K, 34009 kPa | 0.02814 ± 0.00013
323.15 K, 35066 kPa | 0.02852 ± 0.00015
348.15 K, 100.1 kPa | 0.02 ± 8.8e-05
348.15 K, 200.1 kPa | 0.02003 ± 9.1e-05
348.15 K, 300.1 kPa | 0.02004 ± 8.5e-05
348.15 K, 400.2 kPa | 0.02005 ± 8.4e-05
348.15 K, 600.5 kPa | 0.02007 ± 8.3e-05
348.15 K, 800.6 kPa | 0.02009 ± 8.3e-05
348.15 K, 1000.9 kPa | 0.02011 ± 8.5e-05
348.15 K, 1501.9 kPa | 0.02017 ± 8.4e-05
348.15 K, 2001.6 kPa | 0.02023 ± 8.5e-05
348.15 K, 2502 kPa | 0.0203 ± 8.6e-05
348.15 K, 3002.6 kPa | 0.02037 ± 8.7e-05
348.15 K, 3504.2 kPa | 0.02044 ± 8.7e-05
348.15 K, 3999.6 kPa | 0.02051 ± 8.7e-05
348.15 K, 4508.2 kPa | 0.02058 ± 8.8e-05
348.15 K, 5002.2 kPa | 0.02066 ± 8.9e-05
348.15 K, 5502.8 kPa | 0.02074 ± 9.1e-05
348.15 K, 6003.4 kPa | 0.02084 ± 9.1e-05
348.15 K, 6501.3 kPa | 0.02092 ± 9.1e-05
348.15 K, 7002.3 kPa | 0.02101 ± 9.2e-05
348.15 K, 7502.5 kPa | 0.0211 ± 9.3e-05
348.15 K, 8002.1 kPa | 0.0212 ± 9.3e-05
348.15 K, 8501.8 kPa | 0.02129 ± 9.4e-05
348.15 K, 9004 kPa | 0.02139 ± 9.6e-05
348.15 K, 9498.9 kPa | 0.0215 ± 9.7e-05
348.15 K, 10001 kPa | 0.02161 ± 9.6e-05
348.15 K, 11007 kPa | 0.02182 ± 9.7e-05
348.15 K, 12007 kPa | 0.02203 ± 9.9e-05
348.15 K, 13006 kPa | 0.02227 ± 0.0001
348.15 K, 14001 kPa | 0.0225 ± 0.0001
348.15 K, 15011 kPa | 0.02274 ± 0.0001
348.15 K, 16001 kPa | 0.02299 ± 0.00011
348.15 K, 17002 kPa | 0.02326 ± 0.00011
348.15 K, 18004 kPa | 0.02351 ± 0.00011
348.15 K, 19008 kPa | 0.02378 ± 0.00011
348.15 K, 20006 kPa | 0.02404 ± 0.00011
348.15 K, 21004 kPa | 0.02431 ± 0.00011
348.15 K, 22011 kPa | 0.02458 ± 0.00011
348.15 K, 23006 kPa | 0.02486 ± 0.00012
348.15 K, 24004 kPa | 0.02515 ± 0.00012

From the NIST ThermoML archive (doi:10.1021/je050399c)
